These results are taken from ChEMBL document CHEMBL5465560, “Selectivity Literature for EUbOPEN Chemogenomic Library” (2024).

Test [1] addresses Serine/threonine-protein kinase PAK 6 (Homo sapiens) (UniProt Q9NQU5). Put plainly: Selectivity interaction (Upstate Kinase Profiler service (Millipore)) EUB0000056c PAK6. The following applies: at 1 µM.
The target of test [2] is Protein kinase C beta type (Homo sapiens, UniProt P05771). The test is described as follows: Selectivity interaction (ProQinase) EUB0000171b PRKCB. The following applies: at 5 µM.
Sequence of Protein kinase C beta type (P05771 2-671 limits assumed): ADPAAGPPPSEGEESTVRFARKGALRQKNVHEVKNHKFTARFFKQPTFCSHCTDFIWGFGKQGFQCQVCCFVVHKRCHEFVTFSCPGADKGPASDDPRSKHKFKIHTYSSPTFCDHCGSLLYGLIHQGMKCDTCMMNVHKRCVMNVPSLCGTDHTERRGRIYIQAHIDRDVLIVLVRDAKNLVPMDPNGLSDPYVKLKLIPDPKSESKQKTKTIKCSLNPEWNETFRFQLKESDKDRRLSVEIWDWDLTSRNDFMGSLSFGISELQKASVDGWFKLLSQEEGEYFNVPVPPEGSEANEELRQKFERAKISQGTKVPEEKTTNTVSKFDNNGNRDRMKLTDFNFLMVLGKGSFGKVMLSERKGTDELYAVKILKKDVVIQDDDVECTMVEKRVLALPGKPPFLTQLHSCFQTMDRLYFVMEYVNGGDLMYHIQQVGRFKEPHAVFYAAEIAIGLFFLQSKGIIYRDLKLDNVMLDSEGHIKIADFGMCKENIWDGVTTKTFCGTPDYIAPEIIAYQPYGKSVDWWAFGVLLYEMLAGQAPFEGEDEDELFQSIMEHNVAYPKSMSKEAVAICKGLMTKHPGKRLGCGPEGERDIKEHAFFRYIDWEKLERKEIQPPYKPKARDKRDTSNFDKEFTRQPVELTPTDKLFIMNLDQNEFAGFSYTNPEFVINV
The target in test [3] is T1, Dual specificity protein kinase TTK (Homo sapiens) (UniProt P33981).
T1 sequence (whole entry): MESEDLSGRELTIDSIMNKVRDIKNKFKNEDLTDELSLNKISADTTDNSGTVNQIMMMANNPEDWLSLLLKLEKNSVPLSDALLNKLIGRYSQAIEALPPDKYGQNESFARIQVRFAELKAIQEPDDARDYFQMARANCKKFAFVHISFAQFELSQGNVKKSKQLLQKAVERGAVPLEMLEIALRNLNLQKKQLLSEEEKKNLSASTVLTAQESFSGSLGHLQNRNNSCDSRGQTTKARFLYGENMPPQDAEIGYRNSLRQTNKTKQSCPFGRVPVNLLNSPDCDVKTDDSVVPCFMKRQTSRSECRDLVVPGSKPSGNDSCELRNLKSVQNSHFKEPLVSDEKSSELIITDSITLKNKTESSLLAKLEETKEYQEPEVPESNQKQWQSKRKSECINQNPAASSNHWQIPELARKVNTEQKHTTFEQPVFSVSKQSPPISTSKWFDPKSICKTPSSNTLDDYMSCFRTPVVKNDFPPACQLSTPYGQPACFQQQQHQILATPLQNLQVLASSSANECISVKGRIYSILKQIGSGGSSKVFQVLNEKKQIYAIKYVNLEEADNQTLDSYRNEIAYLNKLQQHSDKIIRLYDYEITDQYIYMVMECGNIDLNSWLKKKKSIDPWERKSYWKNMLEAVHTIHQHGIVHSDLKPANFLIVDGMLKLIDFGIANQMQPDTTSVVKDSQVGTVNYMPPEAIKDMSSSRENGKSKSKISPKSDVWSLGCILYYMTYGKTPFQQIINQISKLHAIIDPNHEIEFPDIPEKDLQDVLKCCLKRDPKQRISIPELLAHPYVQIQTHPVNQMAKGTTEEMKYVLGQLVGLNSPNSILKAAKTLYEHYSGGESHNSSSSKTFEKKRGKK
Particulars: at 10 µM.

Test [4] concerns the target RAF proto-oncogene serine/threonine-protein kinase (Homo sapiens) (UniProt P04049). The test is described as follows: Selectivity interaction (Millipore kinase profiler) EUB0000124b RAF1. The following applies: at 10 µM.
Test [5] concerns the target T2, Serine/threonine-protein kinase 36 (Homo sapiens) (UniProt Q9NRP7).
T2 sequence (whole entry): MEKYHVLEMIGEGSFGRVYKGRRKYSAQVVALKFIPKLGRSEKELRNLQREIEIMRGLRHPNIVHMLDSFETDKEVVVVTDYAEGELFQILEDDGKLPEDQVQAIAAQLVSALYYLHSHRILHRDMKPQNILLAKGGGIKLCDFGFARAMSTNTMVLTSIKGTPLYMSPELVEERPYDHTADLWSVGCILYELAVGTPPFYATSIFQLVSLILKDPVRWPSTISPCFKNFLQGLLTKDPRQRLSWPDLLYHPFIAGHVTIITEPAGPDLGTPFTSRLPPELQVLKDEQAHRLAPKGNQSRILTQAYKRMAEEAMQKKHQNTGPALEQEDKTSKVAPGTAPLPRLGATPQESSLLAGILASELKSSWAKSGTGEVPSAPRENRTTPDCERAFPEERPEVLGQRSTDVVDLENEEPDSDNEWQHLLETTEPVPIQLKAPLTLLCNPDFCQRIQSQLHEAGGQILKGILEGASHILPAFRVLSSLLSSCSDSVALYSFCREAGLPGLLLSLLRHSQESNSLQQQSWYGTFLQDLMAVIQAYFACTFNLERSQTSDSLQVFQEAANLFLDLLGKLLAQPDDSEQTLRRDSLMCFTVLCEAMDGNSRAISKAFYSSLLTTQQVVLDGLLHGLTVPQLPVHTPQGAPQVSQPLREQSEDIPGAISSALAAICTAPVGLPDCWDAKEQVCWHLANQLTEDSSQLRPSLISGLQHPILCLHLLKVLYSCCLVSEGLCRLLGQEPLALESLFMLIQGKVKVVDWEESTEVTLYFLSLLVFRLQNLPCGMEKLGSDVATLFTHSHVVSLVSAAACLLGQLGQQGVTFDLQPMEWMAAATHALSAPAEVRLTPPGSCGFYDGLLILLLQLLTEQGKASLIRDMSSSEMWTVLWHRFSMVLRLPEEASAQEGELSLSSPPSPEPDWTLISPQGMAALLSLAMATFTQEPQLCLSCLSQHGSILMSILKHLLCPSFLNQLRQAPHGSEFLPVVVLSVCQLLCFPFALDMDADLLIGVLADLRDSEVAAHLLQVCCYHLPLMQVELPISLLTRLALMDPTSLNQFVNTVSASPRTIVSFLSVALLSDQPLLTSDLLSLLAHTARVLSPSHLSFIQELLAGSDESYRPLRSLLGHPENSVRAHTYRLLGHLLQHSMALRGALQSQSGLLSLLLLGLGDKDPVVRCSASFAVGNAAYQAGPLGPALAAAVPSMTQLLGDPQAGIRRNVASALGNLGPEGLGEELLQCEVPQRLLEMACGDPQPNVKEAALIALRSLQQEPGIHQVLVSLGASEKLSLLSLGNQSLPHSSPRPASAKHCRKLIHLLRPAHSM
The test is described as follows: Selectivity interaction (KinomeScan (DiscoverX)) EUB0000607a STK36. The following applies: at 10 µM.

In test [6] the target is Serine/threonine-protein kinase VRK2 (Homo sapiens) (UniProt Q86Y07). Put plainly: Selectivity interaction (KinomeScan (DiscoverX)) EUB0001619a VRK2. Particulars: at 1 µM.
Sequence of Serine/threonine-protein kinase VRK2 (Homo sapiens) (Q86Y07 whole entry): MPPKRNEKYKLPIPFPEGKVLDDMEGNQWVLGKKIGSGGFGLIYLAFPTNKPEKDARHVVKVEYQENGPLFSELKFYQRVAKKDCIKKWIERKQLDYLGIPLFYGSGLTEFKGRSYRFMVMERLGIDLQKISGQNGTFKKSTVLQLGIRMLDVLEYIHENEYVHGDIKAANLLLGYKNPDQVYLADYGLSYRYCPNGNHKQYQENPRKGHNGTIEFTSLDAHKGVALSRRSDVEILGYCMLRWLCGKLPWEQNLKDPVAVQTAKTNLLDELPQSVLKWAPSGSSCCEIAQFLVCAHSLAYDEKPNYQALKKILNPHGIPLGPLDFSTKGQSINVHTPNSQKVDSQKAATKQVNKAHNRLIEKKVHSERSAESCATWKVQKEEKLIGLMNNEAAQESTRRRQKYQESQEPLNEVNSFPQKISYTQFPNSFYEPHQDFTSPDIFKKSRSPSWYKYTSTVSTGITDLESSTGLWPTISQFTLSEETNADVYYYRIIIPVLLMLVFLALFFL

Sequence of Serine/threonine-protein kinase PAK 6 (Homo sapiens) (Q9NQU5 whole entry, looked up): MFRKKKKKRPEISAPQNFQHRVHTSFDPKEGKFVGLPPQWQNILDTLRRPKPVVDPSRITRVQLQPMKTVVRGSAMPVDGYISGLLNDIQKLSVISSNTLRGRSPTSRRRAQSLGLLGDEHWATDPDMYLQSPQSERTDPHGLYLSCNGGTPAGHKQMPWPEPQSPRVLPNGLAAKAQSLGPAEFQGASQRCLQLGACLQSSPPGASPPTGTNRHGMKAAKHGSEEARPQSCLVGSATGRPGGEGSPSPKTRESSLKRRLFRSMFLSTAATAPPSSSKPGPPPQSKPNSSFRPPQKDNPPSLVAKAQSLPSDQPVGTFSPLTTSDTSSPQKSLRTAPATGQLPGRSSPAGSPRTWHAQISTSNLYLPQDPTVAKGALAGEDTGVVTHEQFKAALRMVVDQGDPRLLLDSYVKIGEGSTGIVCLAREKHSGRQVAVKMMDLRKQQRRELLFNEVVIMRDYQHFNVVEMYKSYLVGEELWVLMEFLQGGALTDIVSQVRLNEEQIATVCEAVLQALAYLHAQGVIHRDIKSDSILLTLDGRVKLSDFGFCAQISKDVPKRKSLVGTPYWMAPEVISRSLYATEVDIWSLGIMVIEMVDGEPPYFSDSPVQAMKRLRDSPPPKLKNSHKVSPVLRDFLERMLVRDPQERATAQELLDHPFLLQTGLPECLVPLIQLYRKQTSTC
Sequence of RAF proto-oncogene serine/threonine-protein kinase (Homo sapiens) (P04049 whole entry): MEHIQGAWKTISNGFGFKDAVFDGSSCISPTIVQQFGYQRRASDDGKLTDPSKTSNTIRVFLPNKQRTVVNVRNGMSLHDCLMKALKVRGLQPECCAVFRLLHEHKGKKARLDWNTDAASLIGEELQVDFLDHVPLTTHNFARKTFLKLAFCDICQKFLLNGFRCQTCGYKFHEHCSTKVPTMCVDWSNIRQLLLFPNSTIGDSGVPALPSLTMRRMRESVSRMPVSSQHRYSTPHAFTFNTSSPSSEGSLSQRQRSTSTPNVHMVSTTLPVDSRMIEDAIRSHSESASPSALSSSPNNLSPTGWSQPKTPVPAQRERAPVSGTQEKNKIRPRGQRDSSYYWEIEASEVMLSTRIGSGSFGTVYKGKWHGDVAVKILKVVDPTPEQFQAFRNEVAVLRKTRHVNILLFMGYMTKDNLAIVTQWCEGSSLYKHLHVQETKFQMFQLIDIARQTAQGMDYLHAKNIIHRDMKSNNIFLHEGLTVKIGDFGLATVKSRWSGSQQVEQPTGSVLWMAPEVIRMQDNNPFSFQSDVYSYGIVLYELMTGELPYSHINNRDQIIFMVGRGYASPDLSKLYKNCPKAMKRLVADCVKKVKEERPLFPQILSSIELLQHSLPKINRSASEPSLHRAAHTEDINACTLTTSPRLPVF

Turning to `Cc1ccc(-c2ccc3c(ccc4sc5c(c43)NC[C@@H](C)NC5=O)n2)cn1`, in test [1], the % of inhibition worked out at 4%.

In test [2], `C=CC(=O)Nc1cccc(C(=O)Nc2ccc(Nc3cc(-c4[nH]c(SC)nc4C)ccn3)cc2)c1` showed a % of control of 81%. The compound `Cc1cc([C@@H](C)Nc2ccccc2C(=O)O)c2nc(N3CCOCC3)cc(=O)n2c1` [AZD-6482] displayed a % of control in test [3] of 100%. Regarding `CC(=O)Nc1cccc(-n2c(=O)n(C3CC3)c(=O)c3c(Nc4ccc(I)cc4F)n(C)c(=O)c(C)c32)c1`, the % of control in test [4] stood at 108%.

`CNC(=O)Nc1ccc(-c2nc(N3CC4CCC(C3)O4)c3cnn(C4CCC5(CC4)OCCO5)c3n2)cc1` yielded a % of control in test [5] of 96%. In turn, `N#Cc1cccc(-c2c[nH]c3ncnc(N4CCOCC4)c23)c1` gave a % of control in test [6] of 100%.
